# According to patent US8258168B2, “2H or 3H-benzo[E]indazol-1-YL carbamate derivatives, the preparation and therapeutic use thereof” (Sanofi, priority 2004, dated 2012):
# How the values were obtained:
# [1] = tested on: motor neurons of the facial nucleus; experiment: Test of survival of the motor neurons after sectioning the facial nerve in rats aged 4 days; type: in vivo, rat; settings: immature rats, facial nerve section, treated for 7 days
# Protocol: Study of the Neuroprotective Activity
# Test of Survival of the Motor Neurons after Sectioning the Facial Nerve in Rats Aged 4 Days
# After lesion of the facial nerve in immature rats, the motor neurons of the facial nucleus experience neuronal death by apoptosis. Neuronal survival is evaluated using neuronal counting and histological methods.
# Immature rats aged 4 days are anaesthetized with pentobarbital (3 mg/kg by the i.p. route). The right facial nerve is exposed and sectioned at its outlet from the stylomastoid foramen. After waking up, the young rats are returned to their mothers and are treated for 7 days with one or two daily administrations, by the oral or intraperitoneal route, at doses ranging from 1 to 10 mg/kg.
# 7 days after the lesion, the animals are decapitated and the brains are frozen in isopentane at −40° C. The entire facial […] is cut with a cryostat into sections with a width of 10 μm. The motor neurons are stained with cresyl violet and counted using the Histo™ software (Biocom™)
# [2] = target: T1, peripheral-type benzodiazepine receptors (PBR or p sites) (Rattus norvegicus, UniProt P16257); experiment: Binding of [3H]Ro5-4864 to peripheral-type benzodiazepine receptors in rat kidney membranes
# T1 construct: After decapitation, the kidney is removed and the tissue is homogenized; from tissue; host or cells: kidney membrane homogenate of male Sprague-Dawley rats
# T1 sequence (P16257 whole entry): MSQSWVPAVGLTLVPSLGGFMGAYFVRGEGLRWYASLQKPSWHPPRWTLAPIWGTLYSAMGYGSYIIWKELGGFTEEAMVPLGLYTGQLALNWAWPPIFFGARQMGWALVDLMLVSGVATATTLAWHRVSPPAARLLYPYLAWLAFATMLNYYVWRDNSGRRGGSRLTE
melting point [°C],SMILES,% increase in the survival of the neurons (10 mg/kg po) [1] [%],IC50 [2] [nM]
146 to 148,CC(C)N(C(=O)Oc1nn(-c2ccncc2)c2c1-c1ccc(Cl)cc1CC2)C(C)C.Cl,,
250 to 251,CCN(CC)C(=O)Oc1c2c(nn1-c1ccncc1)CCc1cc(Cl)ccc1-2.Cl,,
,CCN(CC)C(=O)Oc1c2c(nn1-c1ccc(F)cc1)CCc1ccccc1-2 [compound 20],59,2.8
,CCN(CC)C(=O)Oc1c2c(nn1-c1ccccc1)CCc1cc(Cl)ccc1-2 [compound 14],38,1.6
,CCN(CC)C(=O)Oc1c2c(ccc3cc(Cl)ccc32)nn1-c1ccc(F)cc1 [compound 56],74,1.4
